Three compounds from patent US20070092577A1, “Dietary calcium for reducing the production of reactive oxygen species” (University of Tennessee Research Foundation, priority 2005, published 2007) can be followed below.

In test [1] the test system is ROS production in cultured 3T3-L1 adipocytes. Kind of test: ROS production in cultured adipocytes (H2-DCFDA). Format: cell-based, murine. The conditions noted are these: 48 hours. How it is done:
3T3-L1 preadipocytes were incubated at a density of 8000 cells/cm^2 (10 cm^2 dish) and grown in Dulbecco's modified Eagle's medium (DMEM) containing 10% FBS and antibiotics (adipocyte medium) at 37° C. in 5% CO2 in air. Confluent preadipocytes were induced to differentiate with a standard differentiation medium consisting of DMEM-F 10 (1:1, vol/vol) medium supplemented with 1% FBS, 1 μM dexamethasone, IBMX (0.5 mM) and antibiotics (1% Penicillin-Streptomycin). Preadipocytes were maintained in this differentiation medium for 3 days and subsequently cultured in adipocyte medium. Cultures were re-fed every 2-3 days to allow 90% of cells to reach full differentiation before conducting chemical treatment. Chemicals were freshly diluted in adipocyte medium before treatment. Cells were washed with fresh adipocyte medium, re-fed with medium containing the different treatments, and incubated at 37° C. in 5% CO2 in air before analysis. Cell viability was measured via trypan blue exclusion. […] Cells were loaded with H2-DCFDA (2 μmol/L) 30 minute before the end of the incubation period (48 h). After washing twice with PBS, cells were scraped and disrupted by sonication on ice (20s). Fluorescence (emission 543 nm or 527 nm) and DNA content were then measured as described previously. The intensity of fluorescence was expressed as arbitary units per ng DNA.

Test [2] concerns TNFα. Kind of test: TNFα expression in differentiated 3T3-L1 adipocytes. The settings on record: nifedipine 10 μmol/L alone, 48 h. The test is classed as cell-based, mouse. How it is done: 3T3-L1 pre-adipocytes were incubated at a density of 8000 cells/cm^2 (10 cm^2 dish) and grown in Dulbecco's modified Eagle's medium (DMEM) containing 10% FBS and antibiotics (adipocyte medium) at 37° C. in 5% CO2 in air. Confluent pre-adipocytes were induced to differentiate with a standard differentiation medium consisting of DMEM-F10 (1:1, vol/vol) medium supplemented with 1% fetal bovine serum (FBS), 1 μM dexamethasone, isobutylmethylxanthine (IBMX) (0.5 mM) and antibiotics (1% Penicillin-Streptomycin). Pre-adipocytes were maintained in this differentiation medium for 3 days and subsequently cultured in adipocyte medium. Cultures were re-fed every 2-3 days to allow 90% cells to reach fully differentiation before conducting chemical treatment. […] Cell viability was measured via trypan blue exclusion. Adipocyte and muscle 18s, TNFα, IL-6, IL-8, IL-15 and adiponectin were quantitatively measured using a smart cycler real-time PCR system (Cepheid, Sunnyvale, Calif.) with a TaqMan 1000 Core Reagent Kit (Applied Biosystems, Branchburg, N.J.). […] Reactions of quantitative RT-PCR for standards and unknown samples were also performed according to the instructions of Smart Cycler System (Cepheid, Sunnyvale, Calif.) and TaqMan Real Time PCR Core Kit (Applied Biosystems, Branchburg, N.J.). The mRNA quantitation for each sample was further normalized using the corresponding 18s quantitation.

For a further test, the system named is IL-15. Kind of test: IL-15 expression in differentiated Zen-bio human adipocytes. Format: cell-based. The settings on record: 10 nmol/L 1α, 25-(OH)2-D3 or 10 μmol/L nifedipine, 48 h; p=0.473. How it is done: (§1) Human pre-adipocytes used in this study were supplied by Zen-Bio (Research Triangle, N.C.). […] The cells are isolated from the stromal vascular fraction of human subcutaneous adipose tissue and differentiated in vitro as follows: […] Preadipocytes were maintained in this differentiation medium for 3 days and subsequently cultured in adipocyte medium in which BRL49653 and MIX were omitted. Cultures were re-fed every 2-3 days till fully differentiated. Cells were incubated in serum free medium overnight before chemical treatment. Chemicals were freshly diluted in adipocyte medium before treatment. […] Cell viability was measured via trypan blue exclusion. Adipocyte and muscle 18s, TNFα, IL-6, IL-8, IL-15 and adiponectin were quantitatively measured using a smart cycler real-time PCR system (Cepheid, Sunnyvale, Calif.) with a TaqMan 1000 Core Reagent Kit (Applied Biosystems, Branchburg, N.J.). […] Reactions of quantitative RT-PCR for standards and unknown samples were also performed according to the instructions of Smart Cycler System (Cepheid, Sunnyvale, Calif.) and TaqMan Real Time PCR Core Kit (Applied Biosystems, Branchburg, N.J.). The mRNA quantitation for each sample was further normalized using the corresponding 18s quantitation.

Another test has as its system adiponectin. Kind of test: Adiponectin expression in differentiated Zen-bio human adipocytes. Format: cell-based. The conditions noted are these: 10 nmol/L 1α, 25-(OH)2-D3 or 10 μmol/L nifedipine, 48 h; p=0.377. How it is done:
as §1

The test system of test [3] is TNFα. Kind of test: TNFα expression in RAW 264 macrophages. The conditions noted are these: added to calcitriol; macrophages cultured alone. The test is classed as cell-based. How it is done:
(§2) RAW 264 macrophages and 3T3-L1 preadipocytes (American Type Culture Collection) were incubated at a density of 8000 cells/cm2 (10 cm2 dish) and grown in Dulbecco's modified Eagle's medium (DMEM) containing 10% FBS and antibiotics (adipocyte medium) at 37° C. in 5% CO2 in air. Confluent 3T3-L1 preadipocytes were induced to differentiate with a standard differentiation medium consisting of DMEM-F10 (1:1, vol/vol) medium supplemented with 1% FBS, 1 μM dexamethasone, IBMX (0.5 mM) and antibiotics (1% Penicillin-Streptomycin). Preadipocytes were maintained in this differentiation medium for 3 days and subsequently cultured in adipocyte medium. Cultures were re-fed every 2-3 days to allow 90% cells to reach fully differentiation for 3T3-L1 adipocytes or grow to a confluence for RAW 264 before conducting chemical treatment.
(§3) Human adipocytes (Zen-Bio, Inc.), 3T3-L1 adipocytes, RAW264 macrophages were obtained and co-cultured by using transwell inserts with 0.4 μm porous membranes (Corning) to separate adipocytes and macrophages. All data are expressed as mean±SEM. Data were evaluated for statistical significance by analysis of one-way or two-way variance (ANOVA; means with different letter differ, p<0.05).
(§4) Adipocyte and muscle 18s, CD14, TNFα, MIP, M-CSF, IL-6 and MCP-1 were quantitatively measured using a Smart Cycler Real Time PCR System (Cepheid, Sunnyvale, Calif.) with a TaqMan 1000 Core Reagent Kit (Applied Biosystems, Branchburg, N.J.). The primers and probe sets were obtained from Applied Biosystems TaqMan® Assays-on-Demand™ Gene Expression primers and probe set collection according to manufacture's instruction. […] Reactions of quantitative RT-PCR for standards and unknown samples were also performed according to the instructions of Smart Cycler System (Cepheid, Sunnyvale, Calif.) and TaqMan Real Time PCR Core Kit (Applied Biosystems, Branchburg, N.J.). The mRNA quantitation for each sample was further normalized using the corresponding 18s quantitation.

Another test relates to IL-6. Kind of test: IL-6 expression in RAW 264 macrophages. The conditions noted are these: added to calcitriol; macrophages cultured alone. The test is classed as cell-based. How it is done: as §2, §3, §4
The test system of a further test is 3T3-L1 adipocytes. Kind of test: DNA synthesis / cell proliferation (CyQUANT). The test is classed as cell-based, murine. The settings on record: 48 hours. How it is done:
3T3-L1 preadipocytes were incubated at a density of 8000 cells/cm^2 (10 cm^2 dish) and grown in Dulbecco's modified Eagle's medium (DMEM) containing 10% FBS and antibiotics (adipocyte medium) at 37° C. in 5% CO2 in air. Confluent preadipocytes were induced to differentiate with a standard differentiation medium consisting of DMEM-F 10 (1:1, vol/vol) medium supplemented with 1% FBS, 1 μM dexamethasone, IBMX (0.5 mM) and antibiotics (1% Penicillin-Streptomycin). Preadipocytes were maintained in this differentiation medium for 3 days and subsequently cultured in adipocyte medium. Cultures were re-fed every 2-3 days to allow 90% of cells to reach full differentiation before conducting chemical treatment. Chemicals were freshly diluted in adipocyte medium before treatment. Cells were washed with fresh adipocyte medium, re-fed with medium containing the different treatments, and incubated at 37° C. in 5% CO2 in air before analysis. Cell viability was measured via trypan blue exclusion. Cells were plated in DMEM with different treatment in duplicate in 96-well plates. After 48 h, a CyQUANT Cell Proliferation Kit (Molecular Probes, Eugene, Oreg.) was used following the manufacturer's protocol a microplate fluorometer (Packard Instrument Company, Inc., Downers Grove, Ill.) was used to measure CyQUANT fluorescence. Cell viability was determined by Trypan blue exclusion examination.

In test [4] the test system is Mitochondrial potential in cultured wild-type 3T3-L1 adipocytes. Kind of test: Mitochondrial membrane potential (JC-1). The test is classed as cell-based, murine. The conditions noted are these: GDP 100 μmol/L with H2O2 100 nmol/L, 48 hours. How it is done: 3T3-L1 preadipocytes were incubated at a density of 8000 cells/cm^2 (10 cm^2 dish) and grown in Dulbecco's modified Eagle's medium (DMEM) containing 10% FBS and antibiotics (adipocyte medium) at 37° C. in 5% CO2 in air. Confluent preadipocytes were induced to differentiate with a standard differentiation medium consisting of DMEM-F 10 (1:1, vol/vol) medium supplemented with 1% FBS, 1 μM dexamethasone, IBMX (0.5 mM) and antibiotics (1% Penicillin-Streptomycin). Preadipocytes were maintained in this differentiation medium for 3 days and subsequently cultured in adipocyte medium. Cultures were re-fed every 2-3 days to allow 90% of cells to reach full differentiation before conducting chemical treatment. Chemicals were freshly diluted in adipocyte medium before treatment. […] Cell viability was measured via trypan blue exclusion.
Mitochondrial membrane potential was analyzed fluorometrically with a lipophilic cationic dye JC-1 (5,5′,6,6′-tetrachloro-1,1′,3,3′-tetraethylbenzimidazol carbocyanine iodide) using a mitochondrial potential detection kit (Biocarta, San Diego, Calif.). Mitochondrial potential was determined as the ratio of red fluorescence (excitation 550 nm, emission 600 mn) and green fluorescence (excitation 485 nm, emission 535 nm) using a fluorescence microplate reader.

For a further test, the system named is NADPH oxidase. Kind of test: NADPH oxidase expression in 3T3-L1 adipocytes. The test is classed as cell-based, murine. The settings on record: added to glucose 30 mmol/L, 48 hours; nifedipine 10 μmol/L. How it is done:
(§5) 3T3-L1 preadipocytes were incubated at a density of 8000 cells/cm^2 (10 cm^2 dish) and grown in Dulbecco's modified Eagle's medium (DMEM) containing 10% FBS and antibiotics (adipocyte medium) at 37° C. in 5% CO2 in air. Confluent preadipocytes were induced to differentiate with a standard differentiation medium consisting of DMEM-F 10 (1:1, vol/vol) medium supplemented with 1% FBS, 1 μM dexamethasone, IBMX (0.5 mM) and antibiotics (1% Penicillin-Streptomycin). Preadipocytes were maintained in this differentiation medium for 3 days and subsequently cultured in adipocyte medium. Cultures were re-fed every 2-3 days to allow 90% of cells to reach full differentiation before conducting chemical treatment. Chemicals were freshly diluted in adipocyte medium before treatment. […] Cell viability was measured via trypan blue exclusion. Adipocyte 18s, cyclin A, NADPH oxidase, and UCP2 were quantitatively measured using a Smart Cycler Real Time PCR System (Cepheid, Sunnyvale, Calif.) with a TaqMan 1000 Core Reagent Kit (Applied Biosystems, Branchburg, N.J.). […] Reactions of quantitative RT-PCR for standards and unknown samples were also performed according to the instructions of Smart Cycler System (Cepheid, Sunnyvale, Calif.) and TaqMan Real Time PCR Core Kit (Applied Biosystems, Branchburg, N.J.). The mRNA quantitation for each sample was further normalized using the corresponding 18s quantitation.

For the next test, the system named is cyclin A. Kind of test: Cyclin A expression in 3T3-L1 adipocytes. The conditions noted are these: added to glucose 30 mmol/L, 48 hours; nifedipine 10 μmol/L. The test is classed as cell-based, murine. How it is done:
as §5

Where [5] appears, read: added to glucose 30 mmol/L, nifedipine 10 μmol/L.

As to `COC(=O)C1=C(C)NC(C)=C(C(=O)OC)C1c1ccccc1[N+](=O)[O-]` [nifedipine], the “inhibition of H2O2 induced ROS production” value in test [1] (nifedipine 10 μmol/L with H2O2 100 nmol/L, p<0.003) was determined as 25%. In the test on TNFα [2], the “effect on TNFα expression, alone” value is “no effect”. Besides, the “effect on IL-15 expression” value with IL-15 is “no effect”. Besides, the “effect on adiponectin expression” value with adiponectin is recorded as “no effect”.

`O=[N+]([O-])c1ccc(O)c([N+](=O)[O-])c1` [DNP]: the “effect on calcitriol stimulated TNFα expression” value with TNFα [3] is “blocked”. In the test with IL-6, the “effect on calcitriol stimulated IL-6 expression” value was “blocked”.

As to `Nc1nc2c(ncn2[C@@H]2O[C@H](COP(=O)(O)OP(=O)(O)O)[C@@H](O)[C@H]2O)c(=O)[nH]1` [GDP], in the test on 3T3-L1 adipocytes (GDP 100 μmol/L with H2O2 100 nmol/L, p<0.005), the “augmentation of the stimulation of cell proliferation by H2O2” value is on record as 183%. In addition, in the test on 3T3-L1 adipocytes (setting [5]), the “effect on glucose induced DNA synthesis” value is recorded as “augmented”. In addition, in test [1] (GDP 100 μmol/L with H2O2 100 nmol/L, p<0.01), the “increase of ROS production compared to H2O2 treatment alone” value was 24%. The “effect on high glucose induced ROS production” value in [1] (setting [5]) is “further stimulated ROS production compared to glucose alone”. Further, the “augmentation of the H2O2 effect on mitochondrial potential” value in test [4] worked out at 10%. In the test with NADPH oxidase, the “effect on NADPH oxidase expression” value is “suppressed”. Also, the “effect on glucose stimulated cyclin A expression” value in the test on cyclin A is on record as “augmented”.
